Data taken from patent USRE47689E1, “Compounds for treating spinal muscular atrophy” (PTC Therapeutics, Inc., priority 2011, dated 2019).

Columns and labels:
[1] = system: SMN2 minigene (full length SMN2 minigene mRNA containing SMN2 exon 7); assay: SMN2 minigene mRNA splicing RT-qPCR assay in cultured cells; format: cell-based, human; conditions: HEK293H cells stably transfected with SMN2-A minigene, 24 hours, 7-point concentration curve, 1.5-fold relative to vehicle-treated cells; for EC (1.5-fold): Homo sapiens, HEK293-H, read-out: EC1.5x for production of full length SMN2 mRNA
Summary of the method: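 Full-length SMN2 minigene mRNA (exon 7 included), minigene-specific and not endogenous SMN, quantified by RT-qPCR multiplexed with GAPDH in stably transfected HEK293H cells after 24 h compound exposure at 37° C. Abundance from efficiency-corrected Ct, normalized to GAPDH and vehicle; EC1.5x reported as star bins.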

Smn protein = Smn protein assay in cultured cells (SMN HTRF); format: cell-based, human; conditions: 48 hours; for maximum fold (Fold) increase of Smn protein: SMA patient fibroblast cells, 7-point concentration data, fold increase relative to vehicle control (SMN HTRF); for EC1.5x (concentration giving 1.5-fold Smn protein increase): SMA Type 1 patient fibroblast cells (GM03813), 7-point concentration curve, SMN HTRF, concentration producing 1.5 times Smn protein vs DMSO vehicle control, read-out: EC1.5x for Smn protein expression
Summary of the method: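 Smn in SMA fibroblast lysates, measured by anti-SMN HTRF after 48 h compound exposure; EC1.5x from fold change over vehicle.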

Compound: Cc1cc(F)c2nc(-c3cc4ccc(N5CCNCC5)cc4oc3=O)cn2c1 [Compound 356, 3-(8-fluoro-6-methylimidazo[1,2-a]pyridin-2-yl)-7-(piperazin-1-yl)-2H-chromen-2-one]
- melting point: 276 to 286 °C
- EC (1.5-fold) [1]: < 0.1 µM
- maximum fold (Fold) increase of Smn protein (Smn protein): ** (fold increase between >1.2 and ≤1.35)

Compound: CCc1cc(C)cn2cc(-c3cc4ccc(N5CCN(C)CC5)cc4oc3=O)nc12 [Compound 340, 3-(8-ethyl-6-methylimidazo[1,2-a]pyridin-2-yl)-7-(4-methylpiperazin-1-yl)-2H-chromen-2-one]
- melting point: 203 to 210 °C
- EC (1.5-fold) [1]: 0.3 to 1 µM
- maximum fold (Fold) increase of Smn protein (Smn protein): * (maximum fold increase of ≤1.2)

Compound: O=c1oc2cc(N3CCNCC3)cc(F)c2cc1-c1cn2cccnc2n1 [Compound 312, 5-fluoro-3-(imidazo[1,2-a]pyrimidin-2-yl)-7-(piperazin-1-yl)-2H-chromen-2-one]
- melting point: 298 to 302 °C
- EC (1.5-fold) [1]: 0.3 to 1 µM
- maximum fold (Fold) increase of Smn protein (Smn protein): ** (fold increase between >1.2 and ≤1.35)

Compound: Cc1cn2cc(-c3cc4ccc(N5CCN(C)C(C)(C)C5)cc4oc3=O)nc2c(C)n1 [Compound 737, 3-(6,8-dimethylimidazo[1,2-a]pyrazin-2-yl)-7-(3,3,4-trimethylpiperazin-1-yl)-2H-chromen-2-one]
- melting point: 185 to 187 °C
- EC (1.5-fold) [1]: < 0.1 µM
- EC1.5x (concentration giving 1.5-fold Smn protein increase) (Smn protein): < 300 nM
- maximum fold (Fold) increase of Smn protein (Smn protein): ***** (fold increase >1.65)

Compound: Cc1cn2cc(-c3cc4ccc(N5CCN6CCC[C@H]6C5)cc4oc3=O)cnc2n1 [Compound 649, 7-[(8aS)-hexahydropyrrolo[1,2-a]pyrazin-2(1H)-yl]-3-(2-methylimidazo[1,2-a]pyrimidin-6-yl)-2H-chromen-2-one]
- melting point: 295 to 297 °C
- EC (1.5-fold) [1]: 0.1 to 0.3 µM
- EC1.5x (concentration giving 1.5-fold Smn protein increase) (Smn protein): 300 to 1000 nM
- maximum fold (Fold) increase of Smn protein (Smn protein): ***** (fold increase >1.65)

Compound: Cc1cn2cc(-c3cc4ccc(N5C[C@H]6CCCN[C@H]6C5)cc4oc3=O)nc2c(C)n1 [Compound 781, 3-(6,8-dimethylimidazo[1,2-a]pyrazin-2-yl)-7-[(4aR,7aR)-octahydro-6H-pyrrolo[3,4-b]pyridin-6-yl]-2H-chromen-2-one]
- melting point: 246 to 252 °C
- EC1.5x for production of full length SMN2 mRNA [1]: ***** (EC1.5x≤0.1 μM)
- maximum fold (Fold) increase of Smn protein (Smn protein): ** (fold increase between >1.2 and ≤1.35)

Compound: Cc1cn2cc(-c3cc4ccc(Cn5ccnc5)cc4oc3=O)nc2c(C)n1 [Compound 851, 3-(6,8-dimethylimidazo[1,2-a]pyrazin-2-yl)-7-(1H-imidazol-1-ylmethyl)-2H-chromen-2-one]
- melting point: 286 to 292 °C
- EC (1.5-fold) [1]: 1 to 3 µM
- maximum fold (Fold) increase of Smn protein (Smn protein): *** (fold increase between >1.35 and ≤1.5)

Compound: CC1(C)CN(c2ccc3cc(-c4cn5cccc(Cl)c5n4)c(=O)oc3c2)CCN1 [Compound 249, 3-(8-chloroimidazo[1,2-a]pyridin-2-yl)-7-(3,3-dimethylpiperazin-1-yl)-2H-chromen-2-one]
- melting point: 216 to 220 °C
- EC (1.5-fold) [1]: 0.3 to 1 µM
- maximum fold (Fold) increase of Smn protein (Smn protein): ** (fold increase between >1.2 and ≤1.35)

Compound: Cc1cn2cc(-c3cc4ccc(N5CCN6CCCCC6C5)cc4oc3=O)cc2cn1 (centres unmarked) [Compound 646, 3-(3-methylpyrrolo[1,2-a]pyrazin-7-yl)-7-(octahydro-2H-pyrido[1,2-a]pyrazin-2-yl)-2H-chromen-2-one]
- melting point: 218 to 221 °C
- EC (1.5-fold) [1]: < 0.1 µM
- EC1.5x (concentration giving 1.5-fold Smn protein increase) (Smn protein): < 300 nM
- maximum fold (Fold) increase of Smn protein (Smn protein): **** (fold increase between >1.5 and ≤1.65)

Compound: CC(C)NCc1ccc2cc(-c3cn4ccsc4n3)c(=O)oc2c1 [Compound 199, 3-(imidazo[2,1-b][1,3]thiazol-6-yl)-7-[(propan-2-ylamino)methyl]-2H-chromen-2-one]
- melting point: 141 to 145 °C
- EC (1.5-fold) [1]: 1 to 3 µM
- maximum fold (Fold) increase of Smn protein (Smn protein): ** (fold increase between >1.2 and ≤1.35)

Compound: CNCc1ccc2cc(-c3nc4ccccc4s3)c(=O)oc2c1 [Compound 78, 3-(1,3-benzothiazol-2-yl)-7-[(methylamino)methyl]-2H-chromen-2-one]
- melting point: 156 to 160 °C
- EC (1.5-fold) [1]: 0.3 to 1 µM
- maximum fold (Fold) increase of Smn protein (Smn protein): *** (fold increase between >1.35 and ≤1.5)

Compound: Cc1nc(Cl)cn2cc(-c3cc4ccc(N5CCN(C)[C@H](C)C5)cc4oc3=O)nc12 [Compound 726, 3-(6-chloro-8-methylimidazo[1,2-a]pyrazin-2-yl)-7-[(3R)-3,4-dimethylpiperazin-1-yl]-2H-chromen-2-one]
- melting point: 250 to 252 °C
- EC (1.5-fold) [1]: < 0.1 µM
- EC1.5x (concentration giving 1.5-fold Smn protein increase) (Smn protein): 300 to 1000 nM
- maximum fold (Fold) increase of Smn protein (Smn protein): **** (fold increase between >1.5 and ≤1.65)

Compound: Cc1nccn2cc(-c3cc4ccc(N5CCCN(C)CC5)cc4oc3=O)nc12 [Compound 558, 7-(4-methyl-1,4-diazepan-1-yl)-3-(8-methylimidazo[1,2-a]pyrazin-2-yl)-2H-chromen-2-one]
- melting point: 180 to 182 °C
- EC (1.5-fold) [1]: < 0.1 µM
- EC1.5x (concentration giving 1.5-fold Smn protein increase) (Smn protein): 300 to 1000 nM
- maximum fold (Fold) increase of Smn protein (Smn protein): **** (fold increase between >1.5 and ≤1.65)

Compound: Cc1cn2cc(-c3cc4ccc(OC5CCNCC5)cc4oc3=O)nc2c(C)n1 [Compound 897, 3-(6,8-dimethylimidazo[1,2-a]pyrazin-2-yl)-7-(piperidin-4-yloxy)-2H-chromen-2-one]
- melting point: 172 to 177 °C
- EC (1.5-fold) [1]: < 0.1 µM
- EC1.5x (concentration giving 1.5-fold Smn protein increase) (Smn protein): < 300 nM
- maximum fold (Fold) increase of Smn protein (Smn protein): ***** (fold increase >1.65)

Compound: Cc1cn2cc(-c3cc4ccc(CCCN5CCC[C@@H]5CO)cc4oc3=O)nc2c(C)n1 [Compound 883, 3-(6,8-dimethylimidazo[1,2-a]pyrazin-2-yl)-7-{3-[(2R)-2-(hydroxymethyl)pyrrolidin-1-yl]propyl}-2H-chromen-2-one]
- melting point: 182 to 185 °C
- EC (1.5-fold) [1]: < 0.1 µM
- EC1.5x (concentration giving 1.5-fold Smn protein increase) (Smn protein): < 300 nM
- maximum fold (Fold) increase of Smn protein (Smn protein): ***** (fold increase >1.65)

Compound: Cc1nn2cc(-c3cc4ccc(N5CCNCC5)cc4oc3=O)nc2s1 [Cpd 441, 3-(2-methylimidazo[2,1-b][1,3,4]thiadiazol-6-yl)-7-(piperazin-1-yl)-2H-chromen-2-one]
- melting point: 288 to 290 °C
- EC (1.5-fold) [1]: < 0.1 µM
- maximum fold (Fold) increase of Smn protein (Smn protein): *** (fold increase between >1.35 and ≤1.5)

Compound: Cc1cc2cc(-c3cc4ccc(N5CCN[C@@H](C)C5)cc4oc3=O)oc2c(C)n1 [Compound 804, 3-(5,7-dimethylfuro[2,3-c]pyridin-2-yl)-7-[(3S)-3-methylpiperazin-1-yl]-2H-chromen-2-one]
- melting point: 253 to 257 °C
- EC (1.5-fold) [1]: < 0.1 µM
- EC1.5x (concentration giving 1.5-fold Smn protein increase) (Smn protein): < 300 nM
- maximum fold (Fold) increase of Smn protein (Smn protein): ***** (fold increase >1.65)

Compound: Cc1cn2cc(-c3cc4ccc(N5CC[C@@H](N(C)C)C5)cc4oc3=O)cc2c(C)n1 [Compound 708, 7-[(3R)-3-(dimethylamino)pyrrolidin-1-yl]-3-(1,3-dimethylpyrrolo[1,2-a]pyrazin-7-yl)-2H-chromen-2-one]
- melting point: 155 to 158 °C
- EC (1.5-fold) [1]: < 0.1 µM
- maximum fold (Fold) increase of Smn protein (Smn protein): ** (fold increase between >1.2 and ≤1.35)
